In data set [1] the target is T1, 5-hydroxytryptamine receptor 7 (Homo sapiens, UniProt P34969). The format is cell membranes, CHO-K1, Membrane.
The target in data set [2] is 5-hydroxytryptamine receptor 2A (Homo sapiens, UniProt P28223). It is filed as cell membranes, CHO-K1, Membrane.
The conditions of data set [3]: mouse, in vivo, ip, 0.5 h.
In data set [4] the target is D(2) dopamine receptor (Homo sapiens) (UniProt P14416). The conditions noted are these: CHO-K1, filed as antagonist, time 15-31 min.
The target in data set [5] is T1, 5-hydroxytryptamine receptor 7. The conditions noted are these: CHO-K1, filed as antagonist, time 1.0 hrs.
Data set [6] in a line: Psychoactive effect in ip dosed CD-1 mouse assessed as catalepsy effect measured after 30 to 120 mins by bar test. It is filed as ADME, organism-based. The note with it: in vivo, time 30-120 min.
The species entered for data set [7] is Mus musculus. The data set can be described thus: animal or person. The conditions noted are these: CD-1, ip, 2 h, read-out: MED.
The species named for data set [8] is Mus musculus. The data set can be described thus: animal or person. The conditions noted are these: Swiss, ip, 0.1 h, read-out: MED.
The nature of data set [9]: Sedative activity in ip dosed CD-1 mouse assessed as effect spontaneous locomotor activity measured at 5 mins interval for 120 mins. The format is ADME, organism-based. The note with it: in vivo, 2 h.
Data set [10] can be described thus: Sedative activity in ip dosed Swiss albino mouse assessed as effect spontaneous locomotor activity measured during 2 to 6 mins of test. The conditions noted are these: in vivo, time 2-6 min. It is filed as ADME, organism-based.
For data set [11], the species on record is Mus musculus. As to the kind of experiment: animal or person. The conditions noted are these: CD-1, ip, 2 h, read-out: MED. This is another data set of the same source.
Data set [12] deals with T2, 5-hydroxytryptamine receptor 2C (Homo sapiens, UniProt P28335).
T2 sequence (P28335 whole entry): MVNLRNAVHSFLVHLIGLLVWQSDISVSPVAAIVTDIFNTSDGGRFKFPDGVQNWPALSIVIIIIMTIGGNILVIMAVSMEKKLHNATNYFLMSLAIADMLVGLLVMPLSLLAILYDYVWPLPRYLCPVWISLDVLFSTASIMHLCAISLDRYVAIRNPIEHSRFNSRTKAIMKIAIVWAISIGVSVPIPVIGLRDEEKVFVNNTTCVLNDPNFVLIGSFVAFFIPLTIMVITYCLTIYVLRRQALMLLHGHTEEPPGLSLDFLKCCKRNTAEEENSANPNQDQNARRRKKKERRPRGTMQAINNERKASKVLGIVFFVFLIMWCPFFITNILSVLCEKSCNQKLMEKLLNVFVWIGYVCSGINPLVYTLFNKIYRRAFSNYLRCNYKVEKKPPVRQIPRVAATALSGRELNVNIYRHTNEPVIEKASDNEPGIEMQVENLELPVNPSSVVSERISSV
As to the kind of experiment: Antagonist activity at recombinant human 5HT2C receptor expressed in HEK293 cells assessed as inhibition of serotonin-induced inositol phosphate accumulation measured after 30 mins by HTRF assay. It is filed as cell-based. The conditions noted are these: hek293, 0.5 h.

The target in data set [13] is T3, Alpha-2C adrenergic receptor (Homo sapiens, UniProt P18825).
T3 sequence (P18825 whole entry): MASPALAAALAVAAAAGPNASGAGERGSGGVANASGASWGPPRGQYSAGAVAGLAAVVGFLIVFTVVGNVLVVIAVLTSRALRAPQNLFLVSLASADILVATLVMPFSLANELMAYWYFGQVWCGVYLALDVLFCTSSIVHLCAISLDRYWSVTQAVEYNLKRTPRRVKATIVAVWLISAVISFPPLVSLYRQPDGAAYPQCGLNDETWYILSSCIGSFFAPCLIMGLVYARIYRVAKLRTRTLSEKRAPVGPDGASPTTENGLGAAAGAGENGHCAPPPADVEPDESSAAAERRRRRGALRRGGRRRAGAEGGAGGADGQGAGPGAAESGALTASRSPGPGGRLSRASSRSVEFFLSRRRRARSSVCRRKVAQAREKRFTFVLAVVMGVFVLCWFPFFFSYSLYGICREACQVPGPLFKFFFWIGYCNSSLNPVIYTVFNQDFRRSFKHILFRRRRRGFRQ
As to the kind of experiment: Antagonist activity at recombinant human adrenergic receptor alpha2c expressed in CHO-K1 cells assessed inhibition of epinephrine-induced cAMP accumulation measured after 10 mins by HTRF assay. The format is cell-based. The conditions noted are these: cho-k1, 10 min.

The record followed here is ChEMBL document CHEMBL4680205, “Multifunctional 6-fluoro-3-[3-(pyrrolidin-1-yl)propyl]-1,2-benzoxazoles targeting behavioral and psychological symptoms of dementia (BPSD)” (Eur J Med Chem, 2020).

T1 sequence (P34969 whole entry): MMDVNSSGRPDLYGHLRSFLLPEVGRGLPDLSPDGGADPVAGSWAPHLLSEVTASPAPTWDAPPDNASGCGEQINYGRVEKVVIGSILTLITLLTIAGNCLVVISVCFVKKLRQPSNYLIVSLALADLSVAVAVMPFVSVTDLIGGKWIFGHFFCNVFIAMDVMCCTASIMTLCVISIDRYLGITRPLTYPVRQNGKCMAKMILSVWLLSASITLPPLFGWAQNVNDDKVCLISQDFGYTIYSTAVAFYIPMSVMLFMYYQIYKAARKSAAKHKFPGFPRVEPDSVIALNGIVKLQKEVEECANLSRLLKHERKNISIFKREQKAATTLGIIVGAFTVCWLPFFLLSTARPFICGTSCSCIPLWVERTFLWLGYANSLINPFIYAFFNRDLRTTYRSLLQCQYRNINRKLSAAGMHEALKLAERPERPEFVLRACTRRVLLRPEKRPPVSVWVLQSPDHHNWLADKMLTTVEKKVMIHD
Sequence of 5-hydroxytryptamine receptor 2A (P28223 whole entry): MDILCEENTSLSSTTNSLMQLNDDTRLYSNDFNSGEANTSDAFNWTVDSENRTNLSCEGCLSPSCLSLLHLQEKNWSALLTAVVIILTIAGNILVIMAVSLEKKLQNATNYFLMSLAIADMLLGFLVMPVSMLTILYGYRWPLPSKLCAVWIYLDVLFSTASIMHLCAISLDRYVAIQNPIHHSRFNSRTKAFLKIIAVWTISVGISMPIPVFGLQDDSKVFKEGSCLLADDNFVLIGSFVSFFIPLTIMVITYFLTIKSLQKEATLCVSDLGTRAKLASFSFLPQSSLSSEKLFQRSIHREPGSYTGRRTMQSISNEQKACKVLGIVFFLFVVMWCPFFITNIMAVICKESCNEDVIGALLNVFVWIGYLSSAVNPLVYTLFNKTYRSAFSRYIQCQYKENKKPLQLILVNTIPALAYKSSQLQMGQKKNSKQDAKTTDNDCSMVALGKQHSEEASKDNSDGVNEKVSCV
Sequence of D(2) dopamine receptor (Homo sapiens) (P14416 whole entry): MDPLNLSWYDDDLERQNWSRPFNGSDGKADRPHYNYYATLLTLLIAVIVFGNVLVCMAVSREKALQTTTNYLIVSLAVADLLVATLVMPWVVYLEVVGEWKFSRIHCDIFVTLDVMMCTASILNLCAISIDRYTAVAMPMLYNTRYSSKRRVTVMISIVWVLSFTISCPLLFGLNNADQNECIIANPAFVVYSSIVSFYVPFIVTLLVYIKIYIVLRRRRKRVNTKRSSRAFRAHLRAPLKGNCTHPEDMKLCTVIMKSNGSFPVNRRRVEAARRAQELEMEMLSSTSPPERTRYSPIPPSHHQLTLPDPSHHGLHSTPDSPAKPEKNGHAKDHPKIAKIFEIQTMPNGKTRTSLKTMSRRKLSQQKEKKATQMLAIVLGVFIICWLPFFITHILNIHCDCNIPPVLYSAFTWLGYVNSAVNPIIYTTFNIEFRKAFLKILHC

As for `O=S(=O)(N[C@@H]1CCN(CCCc2noc3cc(F)ccc23)C1)c1ccc(F)c(Cl)c1`, the Ki was 1.45 nM in [1] and 5.25 nM in [2].
The corresponding values for `Cc1cccc(S(=O)(=O)N[C@H]2CCN(CCCc3noc4cc(F)ccc34)C2)c1` are 12.9 nM and 1.02 nM.
As for `O=C1CCc2ccc(OCCCCN3CCN(c4cccc(Cl)c4Cl)CC3)cc2N1` [ARIPIPRAZOLE], in data set [3], the MED was > 2.5 mg/kg.
`CN(C)CCCN1c2ccccc2Sc2ccc(Cl)cc21` yielded a pKb in data set [4] of 8.84.
Turning to `O=S(=O)(N[C@H]1CCN(CCCc2noc3cc(F)ccc23)C1)c1ccc(F)c(Cl)c1`, the Ki in data set [1] is 25.7 nM; in data set [2], 6.46 nM.
As to `CC1CCN(CC[C@H]2CCCN2S(=O)(=O)c2cccc(O)c2)CC1`, the pKb in data set [5] stood at 9.55.
On to `OCCOCCN1CCN(C2=Nc3ccccc3Sc3ccccc32)CC1` [QUETIAPINE], for which the MED stood at 30 mg/kg in [6], 10 mg/kg in [9] and 10 mg/kg in data set [10]. The minimal effective dose in the data set filed under Mus musculus [7] was determined as 10 mg/kg; in the data set listed under Mus musculus [8], 10 mg/kg; in the data set listed under Mus musculus [11] it was 5 mg/kg.
In the case of `Cn1ccc2cc3c(cc21)CCN3C(=O)Nc1cccnc1`, the pKb in [12] was found to be 8.39.
`Cc1cccc(S(=O)(=O)N[C@@H]2CCN(CCCc3noc4cc(F)ccc34)C2)c1` showed a Ki in [1] of 1.7 nM.
Regarding `COC(=O)[C@H]1[C@H]2C[C@H]3c4[nH]c5ccccc5c4CCN3C[C@H]2CC[C@@H]1O` [RAUWOLSCINE], in data set [13], the pKb was 8.62.
